Structures are written as SMILES.

Our source for the IC50 values is patent publication US9902696B2, “1,4-substituted piperidine derivatives” (Cephalon, Inc., priority 2015, dated 2018).

T1 sequence (P49327 whole entry): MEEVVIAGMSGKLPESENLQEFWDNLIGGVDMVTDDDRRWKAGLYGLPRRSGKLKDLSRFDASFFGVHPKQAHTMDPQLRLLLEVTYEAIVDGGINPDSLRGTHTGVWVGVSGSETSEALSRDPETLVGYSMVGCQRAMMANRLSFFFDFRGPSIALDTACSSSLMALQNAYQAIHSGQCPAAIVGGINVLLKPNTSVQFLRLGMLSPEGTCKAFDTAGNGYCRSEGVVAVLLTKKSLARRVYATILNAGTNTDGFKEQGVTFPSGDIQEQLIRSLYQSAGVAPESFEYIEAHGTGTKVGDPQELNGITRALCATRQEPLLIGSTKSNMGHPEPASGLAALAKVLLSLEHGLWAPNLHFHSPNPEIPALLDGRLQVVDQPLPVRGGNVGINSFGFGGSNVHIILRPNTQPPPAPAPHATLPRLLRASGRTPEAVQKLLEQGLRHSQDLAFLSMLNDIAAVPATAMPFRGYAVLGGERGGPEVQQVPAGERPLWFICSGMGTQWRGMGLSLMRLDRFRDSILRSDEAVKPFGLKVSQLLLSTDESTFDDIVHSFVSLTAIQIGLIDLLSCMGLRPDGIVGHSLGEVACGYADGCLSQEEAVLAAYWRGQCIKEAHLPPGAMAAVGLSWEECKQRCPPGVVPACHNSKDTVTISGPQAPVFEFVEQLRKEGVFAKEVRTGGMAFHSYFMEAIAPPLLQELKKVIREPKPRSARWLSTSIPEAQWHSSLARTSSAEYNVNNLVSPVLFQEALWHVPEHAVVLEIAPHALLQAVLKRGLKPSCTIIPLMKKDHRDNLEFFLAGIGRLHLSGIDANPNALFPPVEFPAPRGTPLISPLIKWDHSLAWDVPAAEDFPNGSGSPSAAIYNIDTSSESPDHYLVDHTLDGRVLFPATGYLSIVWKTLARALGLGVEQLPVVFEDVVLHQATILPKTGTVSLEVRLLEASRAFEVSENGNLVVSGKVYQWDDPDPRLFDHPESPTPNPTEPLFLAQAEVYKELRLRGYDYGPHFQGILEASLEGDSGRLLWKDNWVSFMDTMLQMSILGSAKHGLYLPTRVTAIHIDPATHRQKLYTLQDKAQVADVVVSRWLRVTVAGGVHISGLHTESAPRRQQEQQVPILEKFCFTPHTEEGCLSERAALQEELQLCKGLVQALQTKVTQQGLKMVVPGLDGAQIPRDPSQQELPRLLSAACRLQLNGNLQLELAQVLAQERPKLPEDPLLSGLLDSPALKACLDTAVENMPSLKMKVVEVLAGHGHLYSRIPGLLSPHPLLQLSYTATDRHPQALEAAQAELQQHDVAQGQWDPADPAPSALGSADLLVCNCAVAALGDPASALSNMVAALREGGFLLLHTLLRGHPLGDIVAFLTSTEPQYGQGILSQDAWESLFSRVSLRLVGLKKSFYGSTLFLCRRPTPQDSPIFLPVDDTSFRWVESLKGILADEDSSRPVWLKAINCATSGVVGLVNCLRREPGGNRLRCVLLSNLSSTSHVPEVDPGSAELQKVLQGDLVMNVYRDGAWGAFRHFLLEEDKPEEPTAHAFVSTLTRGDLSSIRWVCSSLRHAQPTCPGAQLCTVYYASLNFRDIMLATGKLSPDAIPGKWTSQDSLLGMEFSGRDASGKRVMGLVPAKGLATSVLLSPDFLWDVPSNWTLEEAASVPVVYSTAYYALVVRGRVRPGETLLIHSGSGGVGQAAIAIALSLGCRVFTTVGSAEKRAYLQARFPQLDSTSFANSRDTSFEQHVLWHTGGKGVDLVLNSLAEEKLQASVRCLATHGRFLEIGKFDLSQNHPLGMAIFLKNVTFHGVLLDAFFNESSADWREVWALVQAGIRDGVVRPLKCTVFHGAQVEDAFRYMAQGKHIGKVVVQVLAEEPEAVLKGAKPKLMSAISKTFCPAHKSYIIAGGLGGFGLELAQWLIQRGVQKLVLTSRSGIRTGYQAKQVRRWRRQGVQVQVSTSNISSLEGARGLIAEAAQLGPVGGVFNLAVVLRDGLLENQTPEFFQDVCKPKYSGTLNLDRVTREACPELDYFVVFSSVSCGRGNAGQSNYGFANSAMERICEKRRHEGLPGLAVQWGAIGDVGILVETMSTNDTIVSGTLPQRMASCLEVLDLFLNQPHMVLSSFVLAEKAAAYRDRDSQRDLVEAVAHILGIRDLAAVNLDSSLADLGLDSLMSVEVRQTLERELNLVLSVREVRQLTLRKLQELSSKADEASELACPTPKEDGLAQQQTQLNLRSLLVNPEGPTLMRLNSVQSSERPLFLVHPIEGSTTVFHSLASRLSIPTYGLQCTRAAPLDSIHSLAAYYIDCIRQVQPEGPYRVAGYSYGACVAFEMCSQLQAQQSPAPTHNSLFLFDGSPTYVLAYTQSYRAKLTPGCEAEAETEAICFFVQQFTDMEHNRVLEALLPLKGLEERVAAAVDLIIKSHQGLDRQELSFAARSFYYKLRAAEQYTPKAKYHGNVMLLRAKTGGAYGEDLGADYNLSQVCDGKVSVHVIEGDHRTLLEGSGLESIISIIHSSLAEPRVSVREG

This test concerns the target T1, recombinant human baculovirus-expressed GST-tagged FASN (Homo sapiens, UniProt P49327).
T1 construct: GST
As to the kind of experiment: FASN enzyme activity assay, fluorescence-based detection of CoA with CPM. Type of test: biochemical. The conditions noted are these: 5 nM FASN, 150 μM NADPH, 10 μM acetyl-CoA, 25 μM malonyl-CoA, 90 minutes incubation; read-out: IC50 data for Compounds of Formulae I-V/V(a): Activity. The essentials:
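CoA product reacted with thiol-reactive CPM (diluted to 50 μM in 70% ethanol), read at 390/530 nm after 30 min. Preceding reaction: 90 min, 5 nM recombinant GST-FASN, 150 μM NADPH, 10 μM acetyl-CoA, 25 μM malonyl-CoA, pH 7.5 HEPES, 0.5% DMSO. IC50s fitted by nonlinear sigmoidal regression.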
Take `CCC(=O)N1CCC(Oc2ccc(-c3cnc4ccccc4c3)c(Cl)c2)CC1` [Example 203, 1-[4-(3-Chloro-4-quinolin-3-yl-phenoxy)-piperidin-1-yl]-propan-1-one]: the IC50 fell in the range of 1 to 99 nM. The same measure for `CC(C)C(=O)N1CCC(Oc2ccc(-c3cnc4ccccc4c3)c(Cl)c2)CC1` [Example 204, 1-[4-(3-Chloro-4-quinolin-3-yl-phenoxy)-piperidin-1-yl]-2-methyl-propan-1-one]: 100 to 999 nM. The same measure for `O=C(C1CC1)N1CCC(Oc2ccc(-c3cnc4ccccc4c3)c(Cl)c2)CC1` [Example 205, [4-(3-Chloro-4-quinolin-3-yl-phenoxy)-piperidin-1-yl]-cyclopropyl-methanone]: 1 to 99 nM; for `Cc1cc(OC2CCN(C(=O)C(C)C)CC2)ccc1-c1cnc2ccccc2c1` [Example 206, 2-Methyl-1-[4-(3-methyl-4-quinolin-3-yl-phenoxy)-piperidin-1-yl]-propan-1-one]: 1000 to 10000 nM. Then `CCC(=O)N1CCC(Oc2ccc(-c3cnc4ccccc4c3)c(C)c2)CC1` [Example 207, 1-[4-(3-Methyl-4-quinolin-3-yl-phenoxy)-piperidin-1-yl]-propan-1-one], with 100 to 999 nM; and `COC(=O)N1CCC(Oc2ccc(-c3cnc4ccccc4c3)c(C)c2)CC1` [Example 208, 4-(3-Methyl-4-quinolin-3-yl-phenoxy)-piperidine-1-carboxylic acid methyl ester], with 1000 to 10000 nM. As to `CCC(=O)N1CCC(Oc2ccc(-c3cnc4ccccc4c3)c(OC)c2)CC1` [Example 209, 1-[4-(3-Methoxy-4-quinolin-3-yl-phenoxy)-piperidin-1-yl]-propan-1-one], the IC50 was in the range of 1000 to 10000 nM. Then `COc1cc(OC2CCN(C(=O)C(C)C)CC2)ccc1-c1cnc2ccccc2c1` [Example 210, 1-[4-(3-Methoxy-4-quinolin-3-yl-phenoxy)-piperidin-1-yl]-2-methyl-propan-1-one], with 1000 to 10000 nM; and `COc1cc(OC2CCN(C(=O)C3CC3)CC2)ccc1-c1cnc2ccccc2c1` [Example 211, Cyclopropyl-[4-(3-methoxy-4-quinolin-3-yl-phenoxy)-piperidin-1-yl]-methanone], with 1000 to 10000 nM; and `CCC(=O)N1CCC(Oc2ccc(-c3cnc4ccccc4c3)cc2C)CC1` [Example 212, 1-[4-(2-Methyl-4-quinolin-3-yl-phenoxy)-piperidin-1-yl]-propan-1-one], with 1000 to 10000 nM. With `Cc1cc(-c2cnc3ccccc3c2)ccc1OC1CCN(C(=O)C(C)C)CC1` [Example 213, 2-Methyl-1-[4-(2-methyl-4-quinolin-3-yl-phenoxy)-piperidin-1-yl]-propan-1-one], the IC50 is 1000 to 10000 nM. The same measure for `Cc1cc(-c2cnc3ccccc3c2)ccc1OC1CCN(C(=O)C2CC2)CC1` [Example 214, Cyclopropyl-[4-(2-methyl-4-quinolin-3-yl-phenoxy)-piperidin-1-yl]-methanone]: 1000 to 10000 nM; for `CCC(=O)N1CCC(Oc2cc(F)c(-c3cnc4ccccc4c3)cc2F)CC1` [Example 215, 1-[4-(2,5-Difluoro-4-quinolin-3-yl-phenoxy)-piperidin-1-yl]-propan-1-one]: 100 to 999 nM.

On to `CC(C)C(=O)N1CCC(Oc2cc(F)c(-c3cnc4ccccc4c3)cc2F)CC1` [Example 216, 1-[4-(2,5-Difluoro-4-quinolin-3-yl-phenoxy)-piperidin-1-yl]-2-methyl-propan-1-one], for which the IC50 is 1000 to 10000 nM. In the case of `O=C(C1CC1)N1CCC(Oc2cc(F)c(-c3cnc4ccccc4c3)cc2F)CC1` [Example 217, Cyclopropyl-[4-(2,5-difluoro-4-quinolin-3-yl-phenoxy)-piperidin-1-yl]-methanone], the IC50 was in the range of 100 to 999 nM. `N#CCC(=O)N1CCC(Oc2ccc(-c3cnc4ccccc4c3)cc2)CC1` [Example 218, 3-Oxo-3-[4-(4-quinolin-3-yl-phenoxy)-piperidin-1-yl]-propionitrile]: the IC50 was in the range of 1000 to 10000 nM.

Turning to `CCC(=O)N1CCC(Oc2ccc(-c3ccc4cccnc4c3OC)cc2F)CC1` [Example 219, 1-{4-[2-Fluoro-4-(8-methoxy-quinolin-7-yl)-phenoxy]-piperidin-1-yl}-propan-1-one], the IC50 lay in the range of 1 to 99 nM. The same measure for `COc1c(-c2ccc(OC3CCN(C(=O)C4CC4)CC3)c(F)c2)ccc2cccnc12` [Example 220, Cyclopropyl-{4-[2-fluoro-4-(8-methoxyquinolin-7-yl)-phenoxy]-piperidin-1-yl}-methanone]: 1 to 99 nM; for `COc1c(-c2ccc(OC3CCN(C(=O)[C@H]4CCCO4)CC3)c(F)c2)ccc2cccnc12` [Example 221, {4-[2-Fluoro-4-(8-methoxyquinolin-7-yl)-phenoxy]-piperidin-1-yl}-(R)-tetrahydrofuran-2-yl-methanone]: 1 to 99 nM. Then `O=C(C1CC1)N1CCC(Oc2ccc(-c3ccc4cccnc4c3Cl)cc2F)CC1` [Example 222, {4-[4-(8-Chloroquinolin-7-yl)-2-fluorophenoxy]-piperidin-1-yl}-cyclopropyl-methanone], with 1 to 99 nM; and `O=C([C@H]1CCCO1)N1CCC(Oc2ccc(-c3ccc4cccnc4c3Cl)cc2F)CC1` [Example 223, {4-[4-(8-Chloroquinolin-7-yl)-2-fluorophenoxy]-piperidin-1-yl}-(R)-tetrahydrofuran-2-yl-methanone], with 1 to 99 nM; and `CCC(=O)N1CCC(Oc2ccc(-c3ccc4cccnc4c3Cl)cc2F)CC1` [Example 224, 1-{4-[4-(8-Chloroquinolin-7-yl)-2-fluorophenoxy]-piperidin-1-yl}-propan-1-one], with 1 to 99 nM. Consider `CCC(=O)N1CCC(Oc2ccc(-c3ccc4cccnc4c3C)cc2F)CC1` [Example 225, 1-{4-[2-Fluoro-4-(8-methylquinolin-7-yl)-phenoxy]-piperidin-1-yl}-propan-1-one], for which the IC50 lay in the range of 1 to 99 nM. The same measure for `Cc1c(-c2ccc(OC3CCN(C(=O)[C@H]4CCCO4)CC3)c(F)c2)ccc2cccnc12` [Example 226, {4-[2-Fluoro-4-(8-methylquinolin-7-yl)-phenoxy]-piperidin-1-yl}-(R)-tetrahydrofuran-2-yl-methanone]: 1 to 99 nM; for `Cc1c(-c2ccc(OC3CCN(C(=O)C4CC4)CC3)c(F)c2)ccc2cccnc12` [Example 227, Cyclopropyl-{4-[2-fluoro-4-(8-methylquinolin-7-yl)-phenoxy]-piperidin-1-yl}-methanone]: 1 to 99 nM; for `CCC(=O)N1CCC(Oc2ccc(-c3cnc4ccccc4c3C)cc2F)CC1` [Example 228, 1-{4-[2-Fluoro-4-(4-methylquinolin-3-yl)-phenoxy]-piperidin-1-yl}-propan-1-one]: 100 to 999 nM. Then `Cc1c(-c2ccc(OC3CCN(C(=O)C4CC4)CC3)c(F)c2)cnc2ccccc12` [Example 229, Cyclopropyl-{4-[2-fluoro-4-(4-methylquinolin-3-yl)-phenoxy]-piperidin-1-yl}-methanone], with 100 to 999 nM.

Turning to `Cc1c(-c2ccc(OC3CCN(C(=O)[C@H]4CCCO4)CC3)c(F)c2)cnc2ccccc12` [Example 230, {4-[2-Fluoro-4-(4-methylquinolin-3-yl)-phenoxy]-piperidin-1-yl}-(R)-tetrahydrofuran-2-yl-methanone], the IC50 lay within 1 to 99 nM. The same measure for `CCC(=O)N1CCC(Oc2ccc(-c3cnc4ccccc4c3N)cc2)CC1` [Example 231, 1-{4-[4-(4-Aminoquinolin-3-yl)-phenoxy]-piperidin-1-yl}-propan-1-one]: 1000 to 10000 nM. Then `CCC(=O)N1CCC(Oc2ccc(-c3cnc4ccccc4c3N(C)C)cc2)CC1` [Example 232, 1-{4-[4-(4-Dimethylaminoquinolin-3-yl)-phenoxy]-piperidin-1-yl}-propan-1-one], with 1000 to 10000 nM; and `CN(C)c1c(-c2ccc(OC3CCN(C(=O)[C@H]4CCCO4)CC3)cc2)cnc2ccccc12` [Example 233, {4-[4-(4-Dimethylaminoquinolin-3-yl)-phenoxy]-piperidin-1-yl}-(R)-tetrahydrofuran-2-yl-methanone], with 1000 to 10000 nM; and `Nc1c(-c2ccc(OC3CCN(C(=O)[C@H]4CCCO4)CC3)cc2)cnc2ccccc12` [Example 234, {4-[4-(4-Aminoquinolin-3-yl)-phenoxy]-piperidin-1-yl}-(R)-tetrahydro-furan-2-yl-methanone], with 100 to 999 nM. Take `CCC(=O)N1CCC(Oc2ccc(-c3cnc4ccccc4c3NC)cc2)CC1` [Example 235, 1-{4-[4-(4-Methylaminoquinolin-3-yl)-phenoxy]-piperidin-1-yl}-propan-1-one]: the IC50 is 1000 to 10000 nM.

As to `CNc1c(-c2ccc(OC3CCN(C(=O)[C@H]4CCCO4)CC3)cc2)cnc2ccccc12` [Example 236, {4-[4-(4-Methylaminoquinolin-3-yl)-phenoxy]-piperidin-1-yl}-(R)-tetrahydrofuran-2-yl-methanone], the IC50 was 100 to 999 nM. Then `CCC(=O)N1CCC(Oc2ccc(-c3cnc4ccccc4c3N3CCOCC3)cc2)CC1` [Example 237, 1-{4-[4-(4-Morpholin-4-yl-quinolin-3-yl)-phenoxy]-piperidin-1-yl}-propan-1-one], with 1000 to 10000 nM. The same measure for `O=C([C@H]1CCCO1)N1CCC(Oc2ccc(-c3cnc4ccccc4c3N3CCOCC3)cc2)CC1` [Example 238, {4-[4-(4-Morpholin-4-yl-quinolin-3-yl)-phenoxy]-piperidin-1-yl}-(R)-tetrahydrofuran-2-yl-methanone]: 100 to 999 nM; for `CCC(=O)N1CCC(Oc2ccc(-c3cnc4ccccc4c3N3CCN(C)CC3)cc2)CC1` [Example 239, 1-(4-{4-[4-(4-Methylpiperazin-1-yl)-quinolin-3-yl]-phenoxy}-piperidin-1-yl)-propan-1-one]: 1000 to 10000 nM.
